From US10808018B2, “Erythropoietin-derived peptides and methods of protecting cells from oxidative damage induced by reactive oxygen species” (SYLUS CO., LTD., priority 2017, dated 2020)
Peptide text beside a SMILES is read from it.

Tests used:
[1] = system: PC12 cells; test: Cell proliferation side effect, MTS assay; assay type: cell-based; details: peptide 1 pM to 0.5 nM, 48 hours, FIG. 4
Experimental: Side effects such as cell proliferation were determined for the three peptides (ML1-L2, ML1-K2, and ML1-R2) prepared in Example 4.
In detail, to determine cell proliferation degree, an MTS assay (CellTiter 96 Aqueous One Solution Cell Proliferation Assay, Promega, Madison, Wis., USA) was performed. […] The initial number of cells (0 hour) and the number of cells after 48 hours were counted. Intracellular soluble formazan produced by cell reduction was determined by recording absorbance of each 96-well plate at a wavelength of 490 nm using a VERSA MAX.

[2] = target: T1, Soluble mouse EPOR chimera proteins (erythropoietin receptor) (Mus musculus, UniProt P14753); test: Surface plasmon resonance (SPR) binding affinity to erythropoietin receptor; details: Table 8; for Ka: association rate
T1 construct: Soluble mouse EPOR chimera proteins; purchased R&D Systems
T1 sequence (P14753 25-249 limits assumed): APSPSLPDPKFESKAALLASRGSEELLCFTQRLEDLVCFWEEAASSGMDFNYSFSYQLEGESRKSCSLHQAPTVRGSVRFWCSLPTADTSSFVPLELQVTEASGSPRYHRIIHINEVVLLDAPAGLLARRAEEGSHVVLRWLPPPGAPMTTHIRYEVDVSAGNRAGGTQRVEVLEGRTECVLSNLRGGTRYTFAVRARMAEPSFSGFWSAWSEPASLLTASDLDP
Text: The SPR technique is to measure interactions between biomolecules in real-time by using an optical principle without specific labeling, and is a system analyzing affinity between two molecules and kinetics, i.e., an association rate (Ka) and a dissociation rate (Kd). In detail, real-time SPR analysis may be performed using Reichert SPR Biosensor SR […] instrument (Reichert Inc., NY, USA). Soluble mouse EPOR chimera proteins (R&D Systems, Minneapolis, Minn., USA) were covalently linked to a carboxymethylated dextran matrix-coated chip (BR-1005-39, Pharmacia Biosensor AB) by an amine coupling procedure using an amine coupling kit (BR-1000-50, GE Healthcare, USA) in accordance with manufacturer's instructions. Each 5 pM, 2.5 pM, and 1.25 pM of the peptide samples of the present disclosure and scrambled peptides were applied at a flow rate of 5 μl/minute, and the experiments were independently performed in duplicate. For signal normalization, DMSO was applied at a flow rate of 5 μl/minute. After each binding cycle, the sensor chip was regenerated by injecting 25 mM of acetic acid at a flow rate of 20 μl/minute.

SMILES | cell proliferation rate (side effect) [1] | Ka [2] | dissociation rate constant (koff) [2]
CC(C)C[C@H](NC(=O)CNC(=O)[C@H](CO)NC(=O)[C@@H](NC(=O)[C@H](C)NC(=O)[C@H](CCCCN)NC(=O)[C@H](CC(=O)O)NC(=O)[C@@H](NC(=O)[C@H](Cc1c[nH]cn1)NC(=O)[C@@H](N)CCCCN)C(C)C)C(C)C)C(=O)N[C@@H](CCCNC(=N)N)C(=O)N[C@@H](CO)C(=O)N[C@@H](CC(C)C)C(=O)N[C@H](C(=O)N[C@H](C(=O)N[C@@H](CCCCN)C(=O)O)[C@@H](C)O)[C@@H](C)O [ML1-K2] (H-KHVDKAVSGLRSLTTK-OH) | no side effect of cell proliferation | – | –
CC(C)C[C@H](NC(=O)[C@@H](NC(=O)[C@@H](NC(=O)[C@H](CC(C)C)NC(=O)[C@H](CO)NC(=O)[C@H](CCCNC(=N)N)NC(=O)[C@H](CC(C)C)NC(=O)CNC(=O)[C@H](CO)NC(=O)[C@@H](NC(=O)[C@H](C)NC(=O)[C@H](CCCCN)NC(=O)[C@H](CC(=O)O)NC(=O)[C@@H](NC(=O)[C@H](Cc1c[nH]cn1)NC(=O)[C@@H](N)CC(C)C)C(C)C)C(C)C)[C@@H](C)O)[C@@H](C)O)C(=O)O [ML1-L2] (H-LHVDKAVSGLRSLTTL-OH) | no side effect of cell proliferation | – | –
CC(C)[C@H](NC(=O)[C@H](CCCCN)NC(=O)[C@@H](N)[C@@H](C)O)C(=O)N[C@@H](CC(N)=O)C(=O)N[C@@H](Cc1ccccc1)C(=O)N[C@@H](Cc1ccc(O)cc1)C(=O)N[C@@H](C)C(=O)N[C@@H](Cc1c[nH]c2ccccc12)C(=O)N[C@@H](CCCCN)C(=O)N[C@@H](CCCNC(=N)N)C(=O)O [ML3] (H-TKVNFYAWKR-OH; N-terminus and C-terminus assumed) | – | 2.05 × 10^2 | 3 × 10^−3
CC[C@H](C)[C@H](NC(=O)[C@H](C)NC(=O)[C@H](CCC(=O)O)NC(=O)[C@H](CCCCN)NC(=O)[C@H](CCC(N)=O)NC(=O)[C@H](C)NC(=O)CNC(=O)[C@H](CC(C)C)NC(=O)[C@H](C)NC(=O)[C@H](CCCNC(=N)N)NC(=O)[C@H](CC(C)C)NC(=O)[C@@H](NC(=O)[C@H](Cc1c[nH]cn1)NC(=O)[C@@H](NC(=O)[C@H](CC(C)C)NC(=O)[C@@H](NC(=O)[C@H](CCCCN)NC(=O)[C@H](CC(C)C)NC(=O)CNC(=O)[C@H](CO)NC(=O)[C@@H](NC(=O)[C@H](C)NC(=O)[C@H](CCCCN)NC(=O)[C@@H](N)CCCCN)C(C)C)[C@@H](C)O)[C@@H](C)O)[C@@H](C)CC)C(=O)O [ML4-1] (H-KKAVSGLKTLTHILRALGAQKEAI-OH; N-terminus and C-terminus assumed) | – | 4.10 × 10^2 | 1.20 × 10^−2
CC[C@H](C)[C@H](NC(=O)[C@H](C)NC(=O)[C@H](CCC(=O)O)NC(=O)[C@H](CCCCN)NC(=O)[C@H](CCC(N)=O)NC(=O)[C@H](C)NC(=O)CNC(=O)[C@H](CC(C)C)NC(=O)[C@H](C)NC(=O)[C@H](CCCNC(=N)N)NC(=O)[C@H](CC(C)C)NC(=O)[C@H](CC(C)C)NC(=O)[C@@H](NC(=O)[C@@H](NC(=O)[C@H](CC(C)C)NC(=O)[C@H](CO)NC(=O)[C@H](CCCNC(=N)N)NC(=O)[C@H](CC(C)C)NC(=O)CNC(=O)[C@H](CO)NC(=O)[C@@H](NC(=O)[C@H](C)NC(=O)[C@H](CCCCN)NC(=O)[C@@H](N)CC(=O)O)C(C)C)[C@@H](C)O)[C@@H](C)O)C(=O)O [ML4] (H-DKAVSGLRSLTTLLRALGAQKEAI-OH; N-terminus and C-terminus assumed) | – | 2.2 × 10^2 | 2.2 × 10^−3
CC(C)C[C@H](NC(=O)CNC(=O)[C@H](C)N)C(=O)N[C@@H](CCCNC(=N)N)C(=O)N[C@@H](CO)C(=O)N[C@@H](CCCNC(=N)N)C(=O)N[C@@H](C)C(=O)N[C@@H](Cc1c[nH]cn1)C(=O)N[C@@H](CC(C)C)C(=O)N[C@@H](CCCNC(=N)N)C(=O)N[C@@H](CCCNC(=N)N)C(=O)N[C@@H](C)C(=O)N[C@@H](CC(C)C)C(=O)N[C@@H](C)C(=O)O [ML5-1] (H-AGLRSRAHLRRALA-OH; N-terminus and C-terminus assumed) | – | 4.42 × 10^2 | 3.46 × 10^−2
CC(C)C[C@H](NC(=O)CNC(=O)[C@@H](N)CO)C(=O)N[C@@H](CCCNC(=N)N)C(=O)N[C@@H](CO)C(=O)N[C@@H](CC(C)C)C(=O)N[C@H](C(=O)N[C@H](C(=O)N[C@@H](CC(C)C)C(=O)N[C@@H](CC(C)C)C(=O)N[C@@H](CCCNC(=N)N)C(=O)N[C@@H](C)C(=O)N[C@@H](CC(C)C)C(=O)NCC(=O)O)[C@@H](C)O)[C@@H](C)O [ML5] (H-SGLRSLTTLLRALG-OH; N-terminus and C-terminus assumed) | – | 3.04 × 10^2 | 0.1 × 10^−3
CC[C@H](C)[C@H](NC(=O)[C@H](C)NC(=O)[C@H](CCC(=O)O)NC(=O)[C@H](CCCCN)NC(=O)[C@H](CCC(N)=O)NC(=O)[C@H](C)NC(=O)CNC(=O)[C@H](CC(C)C)NC(=O)[C@H](C)NC(=O)[C@H](CCCNC(=N)N)NC(=O)[C@H](CC(C)C)NC(=O)[C@H](CC(C)C)NC(=O)[C@H](CO)NC(=O)[C@@H](NC(=O)[C@H](CC(C)C)NC(=O)[C@H](CO)NC(=O)[C@H](CCCNC(=N)N)NC(=O)[C@H](CC(C)C)NC(=O)CNC(=O)[C@@H](N)CCCCN)[C@@H](C)CC)C(=O)O [ML6-1] (H-KGLRSLISLLRALGAQKEAI-OH; N-terminus and C-terminus assumed) | – | 1.9 × 10^2 | 3 × 10^−2
CC[C@H](C)[C@H](NC(=O)[C@H](C)NC(=O)[C@H](CCC(=O)O)NC(=O)[C@H](CCCCN)NC(=O)[C@H](CCC(N)=O)NC(=O)[C@H](C)NC(=O)CNC(=O)[C@H](CC(C)C)NC(=O)[C@H](C)NC(=O)[C@H](CCCNC(=N)N)NC(=O)[C@H](CC(C)C)NC(=O)[C@H](CC(C)C)NC(=O)[C@@H](NC(=O)[C@@H](NC(=O)[C@H](CC(C)C)NC(=O)[C@H](CO)NC(=O)[C@H](CCCNC(=N)N)NC(=O)[C@H](CC(C)C)NC(=O)CNC(=O)[C@@H](N)CO)[C@@H](C)O)[C@@H](C)O)C(=O)O [ML6] | – | – | 4.5 × 10^−2
CC[C@H](C)[C@H](NC(=O)[C@H](CC(C)C)NC(=O)[C@@H](NC(=O)[C@@H](NC(=O)[C@H](CC(C)C)NC(=O)[C@@H](NC(=O)[C@H](CCCNC(=N)N)NC(=O)[C@H](CC(C)C)NC(=O)CNC(=O)[C@@H](NC(=O)[C@H](C)NC(=O)[C@H](C)NC(=O)[C@H](CCCCN)NC(=O)[C@H](CC(=O)O)NC(=O)[C@@H](NC(=O)[C@H](CCC(=O)O)NC(=O)[C@H](CC(C)C)NC(=O)[C@H](CC(=O)O)NC(=O)[C@H](CC(C)C)NC(=O)[C@H](C)NC(=O)[C@H](CCC(=O)O)NC(=O)[C@@H](N)CC(=O)O)C(C)C)[C@@H](C)O)[C@@H](C)O)[C@@H](C)O)[C@@H](C)O)C(=O)N[C@@H](CCCNC(=N)N)C(=O)N[C@@H](C)C(=O)N[C@@H](CC(C)C)C(=O)O [ML7-1] (H-DEALDLEVDKAATGLRTLTTLIRAL-OH; N-terminus and C-terminus assumed) | – | 2.26 × 10^2 | 1.44 × 10^−2
CC(C)C[C@H](NC(=O)CNC(=O)[C@H](C)NC(=O)[C@@H](NC(=O)[C@H](C)NC(=O)[C@H](CCCCN)NC(=O)[C@@H](N)CC(N)=O)C(C)C)C(=O)N[C@@H](CCCNC(=N)N)C(=O)N[C@@H](CO)C(=O)N[C@@H](CC(C)C)C(=O)N[C@H](C(=O)N[C@H](C(=O)N[C@@H](CC(N)=O)C(=O)O)C(C)C)[C@@H](C)O [ML8-1] (H-NKAVAGLRSLTVN-OH; N-terminus and C-terminus assumed) | – | – | 1.5 × 10^−1
CC(C)C[C@H](NC(=O)[C@H](C)NC(=O)[C@H](CCCNC(=N)N)NC(=O)[C@H](CC(C)C)NC(=O)[C@H](CC(C)C)NC(=O)[C@@H](NC(=O)[C@@H](NC(=O)[C@H](CC(C)C)NC(=O)[C@H](CO)NC(=O)[C@H](CCCNC(=N)N)NC(=O)[C@H](CC(C)C)NC(=O)CNC(=O)[C@H](CO)NC(=O)[C@@H](NC(=O)[C@H](C)NC(=O)[C@H](CCCCN)NC(=O)[C@@H](N)CC(=O)O)C(C)C)[C@@H](C)O)[C@@H](C)O)C(=O)O [ML8] (H-DKAVSGLRSLTTLLRAL-OH; N-terminus and C-terminus assumed) | – | 1.8 × 10^2 | 0.8 × 10^−1
